The target of assay [1] is T1, Estrogen receptor (Homo sapiens) (UniProt P03372).
T1 sequence (whole entry): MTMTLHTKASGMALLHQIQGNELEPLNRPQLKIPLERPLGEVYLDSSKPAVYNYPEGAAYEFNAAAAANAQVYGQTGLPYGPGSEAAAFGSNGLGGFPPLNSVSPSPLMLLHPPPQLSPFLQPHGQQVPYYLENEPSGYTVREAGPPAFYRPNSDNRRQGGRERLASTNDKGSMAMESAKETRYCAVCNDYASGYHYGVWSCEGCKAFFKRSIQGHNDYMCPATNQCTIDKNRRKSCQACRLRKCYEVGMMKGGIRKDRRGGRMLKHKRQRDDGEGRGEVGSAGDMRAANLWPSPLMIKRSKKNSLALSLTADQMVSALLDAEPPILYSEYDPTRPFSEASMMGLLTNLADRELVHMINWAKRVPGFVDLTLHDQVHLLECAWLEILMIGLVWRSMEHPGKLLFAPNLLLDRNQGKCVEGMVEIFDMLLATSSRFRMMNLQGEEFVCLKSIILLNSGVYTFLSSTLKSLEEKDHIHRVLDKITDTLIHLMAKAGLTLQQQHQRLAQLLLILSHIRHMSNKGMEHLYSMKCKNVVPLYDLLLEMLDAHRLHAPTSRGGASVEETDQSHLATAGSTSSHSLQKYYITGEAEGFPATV
Nature of the assay: Displacement of fluorescein-labeled estradiol from human recombinant ERalpha at 0.2 uM by fluorescence polarization assay.

For assay [2], the target named is T1, Estrogen receptor (Homo sapiens). Nature of the assay: Displacement of fluorescein-labeled estradiol from human recombinant ERalpha at 1 uM by fluorescence polarization assay.
The target is the same in assay [3]. The assay can be described thus: Displacement of fluorescein-labeled estradiol from human recombinant ERalpha at 5 uM by fluorescence polarization assay. For orientation: Polarisation of emitted light reports the rotation of a fluorescent probe.
Assay [4] deals with T2, Estrogen receptor beta (Homo sapiens, UniProt Q92731). Nature of the assay: Displacement of fluorescein-labeled estradiol from human recombinant ERbeta at 5 uM by fluorescence polarization assay.
T2 sequence (Q92731 whole entry): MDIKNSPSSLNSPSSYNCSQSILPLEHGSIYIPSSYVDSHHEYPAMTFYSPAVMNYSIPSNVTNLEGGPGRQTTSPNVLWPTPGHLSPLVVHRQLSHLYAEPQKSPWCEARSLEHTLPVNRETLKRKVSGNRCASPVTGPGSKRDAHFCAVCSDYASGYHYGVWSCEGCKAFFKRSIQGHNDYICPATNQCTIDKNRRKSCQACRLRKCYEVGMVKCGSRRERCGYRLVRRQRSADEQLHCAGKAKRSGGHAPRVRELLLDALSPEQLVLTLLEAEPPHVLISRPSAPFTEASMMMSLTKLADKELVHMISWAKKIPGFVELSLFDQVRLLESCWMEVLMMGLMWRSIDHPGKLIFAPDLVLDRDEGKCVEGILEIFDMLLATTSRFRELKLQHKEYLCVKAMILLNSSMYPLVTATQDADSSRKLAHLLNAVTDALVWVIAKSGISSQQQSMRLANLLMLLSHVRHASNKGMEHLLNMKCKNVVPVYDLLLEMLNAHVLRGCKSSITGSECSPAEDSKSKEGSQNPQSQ
Assay [5] concerns the target T2, Estrogen receptor beta. Nature of the assay: Displacement of fluorescein-labeled estradiol from human recombinant ERbeta at 0.2 uM by fluorescence polarization assay.
Assay [6] addresses T2, Estrogen receptor beta. The assay can be described thus: Displacement of fluorescein-labeled estradiol from human recombinant ERbeta at 1 uM by fluorescence polarization assay.

As for `CCC/C=C(\CCC)[C@@H](NC(=O)c1ccc(-c2ccccc2)cc1)c1ccc(C(=O)OC)cc1`, the Activity in assay [1] is 27%; in assay [2] it was 25%; in assay [3], 27%; at Estrogen receptor beta [4], 4%; at Estrogen receptor beta [5], -1%; on Estrogen receptor beta [6] it was -3%.

With `CCCC[C@@H]1C[C@H]1[C@@H](NC(=O)c1ccc(-c2ccccc2)cc1)c1ccc(-c2ccccc2)cc1`, the Activity was 52% in assay [1]; 42% in assay [2]; -6% in assay [3]; 4% at Estrogen receptor beta [4]; 0% on Estrogen receptor beta [5]; 6% on Estrogen receptor beta [6].

For `CCC/C=C(\CCC)[C@@H](NS(=O)(=O)c1ccc(-c2ccccc2)cc1)c1ccc(C(=O)OC)cc1`, the Activity in assay [1] is -69%; in assay [2], 47%; in assay [3], 54%; at Estrogen receptor beta [4], 16%; at Estrogen receptor beta [5], 6%; on Estrogen receptor beta [6], 12%.

Take `C=C(CCCC)[C@@H](NC(=O)c1ccc(C(F)(F)F)cc1)c1ccccc1`: the Activity in assay [1] is -61%; in assay [2], 21%; in assay [3] it was 27%; at Estrogen receptor beta [4], 3%; on Estrogen receptor beta [5], -8%; at Estrogen receptor beta [6] it was -7%.

As to `CCC/C=C(\CCC)[C@@H](NS(=O)(=O)c1ccc(C(F)(F)F)cc1)c1ccc(-c2ccccc2)cc1`, the Activity in assay [1] worked out at 72%; in assay [2] it was 14%; in assay [3], 46%; at Estrogen receptor beta [4], 7%; at Estrogen receptor beta [5] it was 7%; at Estrogen receptor beta [6] it was 8%.

For `CCC[C@@H]1C[C@@]1(CCC)[C@@H](NC(=O)Cc1ccccc1)c1ccc(-c2ccccc2)cc1`, the Activity was 7% in assay [1]; 17% in assay [2]; -6% in assay [3]; -5% on Estrogen receptor beta [4]; -8% on Estrogen receptor beta [5]; -6% at Estrogen receptor beta [6].

Regarding `C=C(CCCC)[C@@H](NC(=O)c1ccccc1)c1ccccc1`, the Activity in assay [1] turned out to be 58%; in assay [2] it was 70%; in assay [3] it was 67%; on Estrogen receptor beta [4], 9%; at Estrogen receptor beta [5], 2%; at Estrogen receptor beta [6], 3%.

As for `CCC/C=C(\CCC)[C@@H](NC(=O)c1cccs1)c1ccc(C(=O)OC)cc1`, the Activity came out at 48% in assay [1]; 73% in assay [2]; 86% in assay [3]; 31% at Estrogen receptor beta [4]; 5% at Estrogen receptor beta [5]; 13% at Estrogen receptor beta [6].

As to `CCC/C=C(\CCC)[C@@H](NC(=O)c1ccc(C(F)(F)F)cc1)c1ccccc1`, the Activity in assay [1] amounted to 47%; in assay [2] it was 59%; in assay [3], 68%; at Estrogen receptor beta [4] it was 16%; at Estrogen receptor beta [5] it was 10%; at Estrogen receptor beta [6], 11%.

For `CCCC[C@@H]1C[C@H]1[C@@H](NC(=O)C(C)(C)C)c1ccc(C(F)(F)F)cc1`, the Activity in assay [1] is 40%; in assay [2], 39%; in assay [3], 56%; on Estrogen receptor beta [4], 7%; on Estrogen receptor beta [5], -2%; on Estrogen receptor beta [6] it was -4%.

As for `CCC/C=C(\CCC)[C@@H](NC(=O)c1cccs1)c1ccc(C(F)(F)F)cc1`, the Activity in assay [1] is 43%; in assay [2] it was 31%; in assay [3], 73%; on Estrogen receptor beta [4] it was 19%; on Estrogen receptor beta [5], 9%; at Estrogen receptor beta [6], 12%.

For `CCC/C=C(\CCC)[C@@H](NP(=O)(c1ccccc1)c1ccccc1)c1ccc(-c2ccccc2)cc1`, the Activity in assay [1] is 46%; in assay [2], 11%; in assay [3], -77%; on Estrogen receptor beta [4] it was -25%; on Estrogen receptor beta [5], 19%; at Estrogen receptor beta [6] it was -10%.

In the case of `CCCC[C@@H]1C[C@H]1[C@@H](NS(=O)(=O)c1cccc2cccnc12)c1ccc(-c2ccccc2)cc1`, the Activity in assay [1] was determined as 52%; in assay [2] it was 74%; in assay [3], 91%; on Estrogen receptor beta [4], 22%; on Estrogen receptor beta [5] it was 28%; on Estrogen receptor beta [6], 18%.

Regarding `C=C(CCC)[C@@H](NC(=O)c1ccccc1Cl)c1ccccc1`, the Activity in assay [1] was determined as 68%; in assay [2], 68%; in assay [3] it was 73%; on Estrogen receptor beta [4], 7%; at Estrogen receptor beta [5] it was 11%; on Estrogen receptor beta [6], 7%.

With `CCC/C=C(\CCC)[C@@H](NC(=O)CCc1ccccc1)c1ccc(C(F)(F)F)cc1`, the Activity in assay [1] is 56%; in assay [2] it was 31%; in assay [3], 67%; at Estrogen receptor beta [4] it was 17%; on Estrogen receptor beta [5], 8%; on Estrogen receptor beta [6] it was 13%.

Take `CCC/C=C(\CCC)[C@@H](NC(=O)c1ccccc1)c1ccc(C(=O)OC)cc1`: the Activity in assay [1] was found to be 0%; in assay [2], 52%; in assay [3] it was 78%; on Estrogen receptor beta [4], 11%; at Estrogen receptor beta [5], 1%; at Estrogen receptor beta [6] it was 28%.

With `CCC/C=C(\CCC)[C@@H](NC(=O)c1ccc(C(=O)OC)cc1)c1ccc(C(=O)OC)cc1`, the Activity in assay [1] was -14%; in assay [2], 24%; in assay [3] it was 38%; on Estrogen receptor beta [4] it was 8%; on Estrogen receptor beta [5] it was -13%; at Estrogen receptor beta [6], -3%.

Consider `CCC/C=C(\CCC)[C@@H](NS(=O)(=O)c1ccc(C(F)(F)F)cc1)c1ccccc1`, for which the Activity in assay [1] is 47%; in assay [2], 74%; in assay [3] it was 90%; at Estrogen receptor beta [4] it was 30%; on Estrogen receptor beta [5] it was -1%; at Estrogen receptor beta [6], 10%.

For the compound `C=C(CCCC)[C@@H](NC(=O)c1ccco1)c1ccccc1`, the Activity in assay [1] was -111%; in assay [2], 29%; in assay [3], 41%; at Estrogen receptor beta [4], 6%; on Estrogen receptor beta [5] it was -3%; on Estrogen receptor beta [6], -2%.

For `CCCC[C@@H]1C[C@@]1(C)[C@@H](NS(=O)(=O)c1cccc2cccnc12)c1ccc(-c2ccccc2)cc1`, the Activity in assay [1] is 52%; in assay [2] it was 52%; in assay [3] it was 41%; on Estrogen receptor beta [4], 2%; at Estrogen receptor beta [5], -5%; at Estrogen receptor beta [6] it was -4%.

With `CCCCCC/C=C(\C)[C@@H](NC(=O)c1cccnc1)c1ccc(-c2ccccc2)cc1`, the Activity is 32% in assay [1]; 44% in assay [2]; 48% in assay [3]; 6% on Estrogen receptor beta [4]; -8% at Estrogen receptor beta [5]; -4% on Estrogen receptor beta [6].

With `CCCC[C@@H]1C[C@H]1C(NC(=O)c1cccs1)c1ccc(C(F)(F)F)cc1` (single isomer, unassigned), the Activity is 50% in assay [1]; 58% in assay [2]; 79% in assay [3]; 13% on Estrogen receptor beta [4]; 8% on Estrogen receptor beta [5]; 14% on Estrogen receptor beta [6].
